Data as given in the NIST ThermoML archive (doi:10.1021/je7003929).
± gives the expanded uncertainty stated by the source.

Assay: xn = mol fraction of the nth substance listed
Conditions: Liquid, Vibrating tube method

c1ccc2sccc2c1 [benzo[b]thiophene] + CCCCCC
Conditions	mass density [kg/m3]
322.95 K, 1028 kPa, x2 = 0.0629	1103.4 ± 0.5
322.95 K, 2021 kPa, x2 = 0.0629	1104.1 ± 0.5
322.95 K, 3029 kPa, x2 = 0.0629	1104.7 ± 0.5
322.95 K, 4021 kPa, x2 = 0.0629	1105.4 ± 0.5
322.95 K, 5037 kPa, x2 = 0.0629	1106.1 ± 0.5
322.95 K, 6021 kPa, x2 = 0.0629	1106.7 ± 0.5
322.95 K, 7021 kPa, x2 = 0.0629	1107.4 ± 0.5
322.95 K, 8029 kPa, x2 = 0.0629	1108.1 ± 0.5
322.95 K, 9018 kPa, x2 = 0.0629	1108.7 ± 0.5
322.95 K, 10003 kPa, x2 = 0.0629	1109.3 ± 0.5
322.95 K, 10998 kPa, x2 = 0.0629	1109.9 ± 0.5
322.95 K, 12016 kPa, x2 = 0.0629	1110.6 ± 0.5
322.95 K, 13012 kPa, x2 = 0.0629	1111.2 ± 0.5
322.95 K, 14019 kPa, x2 = 0.0629	1111.8 ± 0.5
322.95 K, 15018 kPa, x2 = 0.0629	1112.5 ± 0.5
322.95 K, 16018 kPa, x2 = 0.0629	1113.1 ± 0.5
322.95 K, 17024 kPa, x2 = 0.0629	1113.7 ± 0.5
322.95 K, 18018 kPa, x2 = 0.0629	1114.4 ± 0.5
322.95 K, 19024 kPa, x2 = 0.0629	1115 ± 0.6
322.95 K, 20012 kPa, x2 = 0.0629	1115.6 ± 0.6
323.02 K, 1017 kPa, x2 = 0.7491	752.7 ± 0.5
323.02 K, 2013 kPa, x2 = 0.7491	753.8 ± 0.5
323.02 K, 3014 kPa, x2 = 0.7491	754.9 ± 0.5
323.02 K, 4012 kPa, x2 = 0.7491	756 ± 0.5
323.02 K, 5008 kPa, x2 = 0.7491	757.1 ± 0.5
323.02 K, 6010 kPa, x2 = 0.7491	758.1 ± 0.5
323.02 K, 7025 kPa, x2 = 0.7491	759.2 ± 0.5
323.02 K, 8028 kPa, x2 = 0.7491	760.2 ± 0.5
323.02 K, 9009 kPa, x2 = 0.7491	761.2 ± 0.5
323.02 K, 10010 kPa, x2 = 0.7491	762.2 ± 0.5
323.02 K, 11002 kPa, x2 = 0.7491	763.2 ± 0.5
323.02 K, 12017 kPa, x2 = 0.7491	764.1 ± 0.5
323.02 K, 13019 kPa, x2 = 0.7491	765.1 ± 0.5
323.02 K, 14006 kPa, x2 = 0.7491	766 ± 0.5
323.02 K, 15015 kPa, x2 = 0.7491	767 ± 0.5
323.02 K, 16022 kPa, x2 = 0.7491	767.9 ± 0.5
323.02 K, 17019 kPa, x2 = 0.7491	768.8 ± 0.5
323.02 K, 18016 kPa, x2 = 0.7491	769.8 ± 0.5
323.02 K, 19024 kPa, x2 = 0.7491	770.6 ± 0.5
323.02 K, 20021 kPa, x2 = 0.7491	771.5 ± 0.5
323.09 K, 1017 kPa, x2 = 0.9432	659.3 ± 0.5
323.09 K, 2024 kPa, x2 = 0.9432	660.6 ± 0.5
323.09 K, 3024 kPa, x2 = 0.9432	661.9 ± 0.5
323.09 K, 4016 kPa, x2 = 0.9432	663.1 ± 0.5
323.09 K, 5024 kPa, x2 = 0.9432	664.2 ± 0.5
323.09 K, 6021 kPa, x2 = 0.9432	665.5 ± 0.5
323.09 K, 7018 kPa, x2 = 0.9432	666.6 ± 0.5
323.09 K, 8020 kPa, x2 = 0.9432	667.8 ± 0.5
323.09 K, 9019 kPa, x2 = 0.9432	668.9 ± 0.5
323.09 K, 10010 kPa, x2 = 0.9432	670 ± 0.5
323.09 K, 11012 kPa, x2 = 0.9432	671.1 ± 0.5
323.09 K, 12013 kPa, x2 = 0.9432	672.2 ± 0.5
323.09 K, 13021 kPa, x2 = 0.9432	673.3 ± 0.5
323.09 K, 14023 kPa, x2 = 0.9432	674.3 ± 0.5
323.09 K, 15015 kPa, x2 = 0.9432	675.3 ± 0.5
323.09 K, 16001 kPa, x2 = 0.9432	676.3 ± 0.5
323.09 K, 17028 kPa, x2 = 0.9432	677.3 ± 0.6
323.09 K, 18003 kPa, x2 = 0.9432	678.3 ± 0.6
323.09 K, 19001 kPa, x2 = 0.9432	679.3 ± 0.6
323.09 K, 20017 kPa, x2 = 0.9432	680.3 ± 0.6
332.66 K, 1020 kPa, x2 = 0.2588	991.1 ± 0.5
332.66 K, 2021 kPa, x2 = 0.2588	991.9 ± 0.5
332.66 K, 3022 kPa, x2 = 0.2588	992.7 ± 0.5
332.66 K, 4018 kPa, x2 = 0.2588	993.5 ± 0.5
332.66 K, 5021 kPa, x2 = 0.2588	994.3 ± 0.5
332.66 K, 6012 kPa, x2 = 0.2588	995 ± 0.5
332.66 K, 7018 kPa, x2 = 0.2588	995.8 ± 0.5
332.66 K, 8005 kPa, x2 = 0.2588	996.6 ± 0.5
332.66 K, 9012 kPa, x2 = 0.2588	997.3 ± 0.5
332.66 K, 10011 kPa, x2 = 0.2588	998.2 ± 0.5
332.66 K, 11013 kPa, x2 = 0.2588	998.9 ± 0.5
332.66 K, 12006 kPa, x2 = 0.2588	999.7 ± 0.5
332.66 K, 13011 kPa, x2 = 0.2588	1000.4 ± 0.5
332.66 K, 14000 kPa, x2 = 0.2588	1001.2 ± 0.5
332.66 K, 15025 kPa, x2 = 0.2588	1002 ± 0.5
332.66 K, 16005 kPa, x2 = 0.2588	1002.6 ± 0.5
332.66 K, 17000 kPa, x2 = 0.2588	1003.3 ± 0.5
332.66 K, 18002 kPa, x2 = 0.2588	1004.1 ± 0.5
332.66 K, 19009 kPa, x2 = 0.2588	1004.8 ± 0.5
332.66 K, 20016 kPa, x2 = 0.2588	1005.5 ± 0.5
332.77 K, 1019 kPa, x2 = 0.0629	1094.5 ± 0.5
332.77 K, 2029 kPa, x2 = 0.0629	1095.3 ± 0.5
332.77 K, 3030 kPa, x2 = 0.0629	1096 ± 0.5
332.77 K, 4019 kPa, x2 = 0.0629	1096.7 ± 0.5
332.77 K, 5026 kPa, x2 = 0.0629	1097.4 ± 0.5
332.77 K, 6037 kPa, x2 = 0.0629	1098.1 ± 0.5
332.77 K, 7035 kPa, x2 = 0.0629	1098.8 ± 0.5
332.77 K, 8021 kPa, x2 = 0.0629	1099.5 ± 0.5
332.77 K, 9012 kPa, x2 = 0.0629	1100.1 ± 0.5
332.77 K, 10008 kPa, x2 = 0.0629	1100.8 ± 0.5
332.77 K, 11026 kPa, x2 = 0.0629	1101.5 ± 0.5
332.77 K, 12020 kPa, x2 = 0.0629	1102.2 ± 0.5
332.77 K, 13012 kPa, x2 = 0.0629	1102.8 ± 0.5
332.77 K, 14016 kPa, x2 = 0.0629	1103.4 ± 0.5
332.77 K, 15015 kPa, x2 = 0.0629	1104.2 ± 0.5
332.77 K, 16015 kPa, x2 = 0.0629	1104.7 ± 0.5
332.77 K, 17020 kPa, x2 = 0.0629	1105.4 ± 0.5
332.77 K, 18020 kPa, x2 = 0.0629	1106.1 ± 0.5
332.77 K, 19022 kPa, x2 = 0.0629	1106.7 ± 0.5
332.77 K, 20017 kPa, x2 = 0.0629	1107.3 ± 0.5
332.82 K, 1026 kPa, x2 = 0.9432	650.1 ± 0.5
332.82 K, 2016 kPa, x2 = 0.9432	651.4 ± 0.5
332.82 K, 3016 kPa, x2 = 0.9432	652.8 ± 0.5
332.82 K, 4023 kPa, x2 = 0.9432	654.1 ± 0.5
332.82 K, 5004 kPa, x2 = 0.9432	655.4 ± 0.5
332.82 K, 6016 kPa, x2 = 0.9432	656.7 ± 0.5
332.82 K, 7012 kPa, x2 = 0.9432	658 ± 0.5
332.82 K, 8018 kPa, x2 = 0.9432	659.2 ± 0.5
332.82 K, 9014 kPa, x2 = 0.9432	660.5 ± 0.5
332.82 K, 10014 kPa, x2 = 0.9432	661.6 ± 0.5
332.82 K, 11009 kPa, x2 = 0.9432	662.8 ± 0.5
332.82 K, 12005 kPa, x2 = 0.9432	664 ± 0.5
332.82 K, 13020 kPa, x2 = 0.9432	665.1 ± 0.5
332.82 K, 14007 kPa, x2 = 0.9432	666.3 ± 0.5
332.82 K, 15005 kPa, x2 = 0.9432	667.3 ± 0.5
332.82 K, 16012 kPa, x2 = 0.9432	668.4 ± 0.5
332.82 K, 17015 kPa, x2 = 0.9432	669.5 ± 0.6
332.82 K, 18010 kPa, x2 = 0.9432	670.6 ± 0.6
332.82 K, 19000 kPa, x2 = 0.9432	671.6 ± 0.6
332.82 K, 20001 kPa, x2 = 0.9432	672.6 ± 0.6
332.86 K, 1031 kPa, x2 = 0.7491	743.7 ± 0.5
332.86 K, 2024 kPa, x2 = 0.7491	744.9 ± 0.5
332.86 K, 3019 kPa, x2 = 0.7491	746.1 ± 0.5
332.86 K, 4001 kPa, x2 = 0.7491	747.2 ± 0.5
332.86 K, 5002 kPa, x2 = 0.7491	748.4 ± 0.5
332.86 K, 6020 kPa, x2 = 0.7491	749.5 ± 0.5
332.86 K, 7005 kPa, x2 = 0.7491	750.6 ± 0.5
332.86 K, 8013 kPa, x2 = 0.7491	751.7 ± 0.5
332.86 K, 9004 kPa, x2 = 0.7491	752.8 ± 0.5
332.86 K, 10000 kPa, x2 = 0.7491	753.8 ± 0.5
332.86 K, 11019 kPa, x2 = 0.7491	754.9 ± 0.5
332.86 K, 12006 kPa, x2 = 0.7491	755.9 ± 0.5
332.86 K, 13014 kPa, x2 = 0.7491	757 ± 0.5
332.86 K, 14008 kPa, x2 = 0.7491	757.9 ± 0.5
332.86 K, 15007 kPa, x2 = 0.7491	758.9 ± 0.5
332.86 K, 16009 kPa, x2 = 0.7491	759.9 ± 0.5
332.86 K, 17002 kPa, x2 = 0.7491	760.9 ± 0.5
332.86 K, 18026 kPa, x2 = 0.7491	761.8 ± 0.5
332.86 K, 19007 kPa, x2 = 0.7491	762.8 ± 0.5
332.86 K, 20017 kPa, x2 = 0.7491	763.7 ± 0.5
